Measurements: PMC1307573 (Journal of Insect Science, 2005)
Blank lines part the entries; values can stand above or below the compound they belong to.

Tests used:
Gyc-88EL/89Da = Gyc-88EL/89Da (Drosophila melanogaster, UniProt Q8INF0+Q9VEU6); format: biochemical
Gyc-88EL/89Db [1] = molecular target: T1, Gyc-88EL/89Db (Drosophila melanogaster, UniProt Q8INF0+Q9VEU5); format: biochemical; details: for activation by NO-independent activator: COS-7 cell extracts, 4mM Mg2+
Gycα-99B/β-100B = Gycα-99B/β-100B (Drosophila melanogaster, UniProt Q07093+Q9VA09); format: biochemical
Gyc-88EL [2] = molecular target: T2, Gyc-88EL (Drosophila melanogaster, UniProt Q8INF0); details: ref Langlais et al. 2004, cited from earlier work
T2 sequence (Q8INF0 1-1097): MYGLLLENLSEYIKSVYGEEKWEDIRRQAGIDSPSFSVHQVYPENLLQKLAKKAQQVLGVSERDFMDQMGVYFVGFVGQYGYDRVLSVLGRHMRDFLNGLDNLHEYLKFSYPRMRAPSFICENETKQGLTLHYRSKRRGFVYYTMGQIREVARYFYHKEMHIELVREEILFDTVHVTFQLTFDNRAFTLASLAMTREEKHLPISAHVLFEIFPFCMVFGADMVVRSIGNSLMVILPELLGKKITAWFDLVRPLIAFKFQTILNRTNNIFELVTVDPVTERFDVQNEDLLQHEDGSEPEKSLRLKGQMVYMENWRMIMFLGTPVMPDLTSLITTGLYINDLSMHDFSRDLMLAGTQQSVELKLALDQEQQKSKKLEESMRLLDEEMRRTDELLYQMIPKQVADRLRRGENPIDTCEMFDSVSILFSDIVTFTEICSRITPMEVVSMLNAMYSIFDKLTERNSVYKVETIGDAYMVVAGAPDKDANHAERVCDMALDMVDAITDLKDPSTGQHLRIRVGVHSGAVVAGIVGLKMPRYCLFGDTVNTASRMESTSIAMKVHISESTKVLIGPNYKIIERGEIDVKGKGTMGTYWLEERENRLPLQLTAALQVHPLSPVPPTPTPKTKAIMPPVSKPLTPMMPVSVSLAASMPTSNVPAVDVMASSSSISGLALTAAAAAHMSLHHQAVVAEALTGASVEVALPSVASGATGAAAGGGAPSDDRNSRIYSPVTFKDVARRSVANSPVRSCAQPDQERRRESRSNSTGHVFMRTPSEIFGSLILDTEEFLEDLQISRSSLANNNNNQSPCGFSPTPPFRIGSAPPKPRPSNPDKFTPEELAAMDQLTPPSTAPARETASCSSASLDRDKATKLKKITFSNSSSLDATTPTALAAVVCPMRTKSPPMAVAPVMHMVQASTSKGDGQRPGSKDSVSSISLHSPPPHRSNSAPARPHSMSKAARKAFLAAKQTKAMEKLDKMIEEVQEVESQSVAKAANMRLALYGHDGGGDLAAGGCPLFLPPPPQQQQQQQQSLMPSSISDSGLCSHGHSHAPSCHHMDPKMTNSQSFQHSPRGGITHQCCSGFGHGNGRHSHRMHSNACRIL

Gyc-88EL [3] = molecular target: T2, Gyc-88EL; format: biochemical
Gyc-88EL/89Db [4] = molecular target: T1, Gyc-88EL/89Db; details: ref Langlais et al. 2004; cited from earlier work
[5] = NO donor; cited from earlier work

Gyc-88EL/89Da, sequence (Q9VEU6 whole entry, one chain of several): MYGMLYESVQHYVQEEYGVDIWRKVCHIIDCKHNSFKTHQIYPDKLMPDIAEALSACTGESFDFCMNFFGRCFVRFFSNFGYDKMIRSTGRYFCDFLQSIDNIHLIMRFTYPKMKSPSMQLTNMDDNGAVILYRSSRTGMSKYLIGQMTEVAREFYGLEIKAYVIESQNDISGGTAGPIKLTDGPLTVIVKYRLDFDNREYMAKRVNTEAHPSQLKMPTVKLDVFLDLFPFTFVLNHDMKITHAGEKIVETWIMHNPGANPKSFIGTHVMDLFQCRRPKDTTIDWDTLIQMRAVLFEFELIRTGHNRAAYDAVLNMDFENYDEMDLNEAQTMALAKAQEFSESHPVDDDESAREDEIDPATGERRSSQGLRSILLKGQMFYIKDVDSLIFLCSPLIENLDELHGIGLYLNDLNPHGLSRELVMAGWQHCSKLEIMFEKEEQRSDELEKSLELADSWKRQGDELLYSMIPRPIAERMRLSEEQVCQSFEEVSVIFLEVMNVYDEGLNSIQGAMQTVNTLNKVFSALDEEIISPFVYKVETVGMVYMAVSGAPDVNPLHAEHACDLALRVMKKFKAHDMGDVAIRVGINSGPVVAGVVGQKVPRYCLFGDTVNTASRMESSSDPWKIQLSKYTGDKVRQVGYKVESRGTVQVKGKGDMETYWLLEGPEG
T1 sequence (Q9VEU5 whole entry, one chain of several): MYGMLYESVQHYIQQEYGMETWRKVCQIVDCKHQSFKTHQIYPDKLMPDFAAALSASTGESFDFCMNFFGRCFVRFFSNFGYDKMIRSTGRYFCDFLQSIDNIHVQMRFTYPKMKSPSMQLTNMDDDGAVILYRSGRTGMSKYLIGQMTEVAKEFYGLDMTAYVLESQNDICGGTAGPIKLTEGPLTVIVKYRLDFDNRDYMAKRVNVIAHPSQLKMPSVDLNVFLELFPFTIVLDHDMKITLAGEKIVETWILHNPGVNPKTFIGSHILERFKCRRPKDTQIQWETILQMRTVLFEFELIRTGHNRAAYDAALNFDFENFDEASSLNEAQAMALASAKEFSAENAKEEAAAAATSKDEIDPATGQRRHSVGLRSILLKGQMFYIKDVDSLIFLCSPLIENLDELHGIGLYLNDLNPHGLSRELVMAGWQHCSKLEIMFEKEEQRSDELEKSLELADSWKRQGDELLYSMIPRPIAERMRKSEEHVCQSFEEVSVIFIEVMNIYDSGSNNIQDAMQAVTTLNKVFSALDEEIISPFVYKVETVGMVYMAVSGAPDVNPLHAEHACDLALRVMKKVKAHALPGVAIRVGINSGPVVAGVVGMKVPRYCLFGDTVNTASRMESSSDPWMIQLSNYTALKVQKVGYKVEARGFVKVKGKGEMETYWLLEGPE

Structure (SMILES): O=c1onc2cnc3ccccc3n12 [ODQ, 1H-[1,2,4]oxadiazolo [4,3,-a]quinoxaline-1-one]
- inhibition of NOC-12-stimulated activity (Gyc-88EL/89Da; 100 μM ODQ, data not shown): inhibited
- DEA-NONOate-stimulated guanylyl cyclase activity in the presence of ODQ (Gyc-88EL/89Db [1]; 1 μM DEA-NONOate + 100 μM ODQ, 676 ± 70 in the absence): 141 ± 21 fmoles cGMP/min/mg protein
- inhibition of NOC-12-stimulated activity (Gyc-88EL/89Db [1]; 100 μM ODQ, data not shown): inhibited
- basal guanylyl cyclase activity in the presence of ODQ (Gyc-88EL/89Db [1]; 100 μM ODQ, 208 ± 19 in the absence): 237 ± 13 fmoles cGMP/min/mg protein
- blocking of the NO-stimulation (Gycα-99B/β-100B; all forms of the soluble guanylyl cyclases): effective at blocking the NO-stimulation
- inhibition of the activation by sodium nitroprusside (Gyc-88EL [2]): ineffective

- activation by NO-independent activator (Gyc-88EL [3]; COS-7 cell extracts, 4mM Mg2+): insensitivity
- activation by NO-independent activator (Gyc-88EL/89Da; COS-7 cell extracts, 4mM Mg2+): insensitivity
- activation by NO-independent activator (Gyc-88EL/89Db [1]): insensitivity
- activation by NO-independent activator (Gycα-99B/β-100B): only activate the conventional enzyme
Structure (SMILES): OCc1ccc(-c2nn(Cc3ccccc3)c3ccccc23)o1 [YC-1]

Structure (SMILES): CCN(CC)/[N+]([O-])=N/O [DEA-NONOate, diethylamine- (DEA)-NONOate]
- maximal stimulation of guanylyl cyclase activity (Gyc-88EL [3]; COS-7 cell extracts, 4mM Mg2+): No stimulation
- maximal stimulation of guanylyl cyclase activity (Gyc-88EL/89Da; COS-7 cell extracts, 4mM Mg2+): No stimulation
- EC50 (Gyc-88EL/89Db [1]): ~0.1 µM
- DEA-NONOate-stimulated guanylyl cyclase activity (Gyc-88EL/89Db [1]; 1 μM DEA-NONOate, absence of ODQ, basal 208 ± 19): 676 ± 70 fmoles cGMP/min/mg protein
- concentration of maximal activation (Gyc-88EL/89Db [1]; bell-shaped response): about 1 μM
- activation at 100 μM (Gyc-88EL [2]; 100 μM): did not significantly activate
- activation at 100 μM (Gyc-88EL/89Db [4]): did not significantly activate

Structure (SMILES): Nc1nc(-c2nn(Cc3ccccc3F)c3ncccc23)ncc1C1CC1 [BAY 41-2272]
- activation by NO-independent activator (Gyc-88EL [3]; COS-7 cell extracts, 4mM Mg2+): None of the atypical guanylyl cyclase subunit combinations showed any activation
- activation by NO-independent activator (Gyc-88EL/89Da; COS-7 cell extracts, 4mM Mg2+): None of the atypical guanylyl cyclase subunit combinations showed any activation
- activation by NO-independent activator (Gyc-88EL/89Db [1]): None of the atypical guanylyl cyclase subunit combinations showed any activation
- EC50 (Gycα-99B/β-100B): 7.3 µM
- activation at 30 μM (Gycα-99B/β-100B; 30 μM, 4mM Mg2+): over 100 fold

- Vmax Mn/Mg (Gyc-88EL [3]; ratio of Vmax in Mn2+ to Mg2+): 1.71
- Vmax Mn/Mg (Gyc-88EL/89Da; ratio of Vmax in Mn2+ to Mg2+): 46.9
- Vmax Mn/Mg (Gyc-88EL/89Db [1]; ratio of Vmax in Mn2+ to Mg2+): 1.81
- Vmax Mn/Mg (Gycα-99B/β-100B; ratio of Vmax in Mn2+ to Mg2+): 96.7
Structure (SMILES): Nc1nc2c(ncn2[C@@H]2O[C@H](COP(=O)(O)OP(=O)(O)OP(=O)(O)O)[C@@H](O)[C@H]2O)c(=O)[nH]1 [GTP]

Structure (SMILES): CC(=O)NC(C(=O)O)C(C)(C)SN=O (centres unmarked) [SNAP, S-nitroso-N-acetylpenicillamine]
- EC50 for activation (Gyc-88EL [3]; COS-7 cell extracts, 4mM Mg2+): not saturated with 100 μM SNAP
- EC50 (Gyc-88EL/89Da): ~10 µM
- EC50 (Gyc-88EL/89Db [1]): ~10 µM

Structure (SMILES): CCNCCN(CC)N(O)N=O [NOC-12]
- EC50 (Gyc-88EL/89Da): ~2 µM
- EC50 (Gyc-88EL/89Db [1]): ~2 µM
- half-life [5]: 5.45 h
